Reference: article PMC5378956, “Inhibition of delta-secretase improves cognitive functions in mouse models of Alzheimer's disease” (Nature Communications, 2017)
Entries after “also recorded” stand apart in the source; their conditions may differ.

Tests used:
[1] = NMR stability and thiol reactivity (cysteamine, β-mercaptoethanol); format: physicochemical
5XFAD mice = system: 5XFAD mice
Description: Only 2-month-old male mice were used in the present study. Sample size was determined by Power and Precision (Biostat). The animals were randomly allocated to experimental groups. Investigators were blinded to the group allocation during the animal experiments. […] The protocol was reviewed and approved by the Emory Institutional Animal Care and Use Committee. Rabbit anti-tau N368 (1:1,000), and anti-APP585N (1:500) antibody, which specifically recognize the δ-secretase-derived tau and APP fragments respectively, were described previously. […] TUNEL in situ cell death detection kit was from Roche (Indianapolis, IN). […] All chemicals not included above were purchased from Sigma-Aldrich (St. Louis, MO). Recombinant δ-secretase was obtained from Sino Biological (Beijing, China), recombinant cathepsin-S was obtained from Athens Research and Technology (Athens, GA), recombinant caspase-3 and caspase-8 were obtained from Millipore (Billerica, MA).
The mice were trained in a round, water-filled tub (52′ diameter) in an environment rich with extra maze cues. An invisible escape platform was located in a fixed spatial location 1 cm below the water surface independent of a subject's start position on a particular trial. In this manner, subjects needed to utilize extra maze cues to determine the platform's location. At the beginning of each trial, the mouse was placed in the water maze with their paws touching the wall from 1 of 4 different starting positions (N, S, E, W). […] On reaching the invisible escape platform, subjects were left on it for an additional 5 s to allow for survey of the spatial cues in the environment to guide future navigation to the platform. After each trial, subjects were dried and kept in a dry plastic holding cage filled with paper towels to allow the subjects to dry off. The temperature of the water was monitored every hour so that mice were tested in water that was between 22 and 25 °C. Following the 5 days of task acquisition, a probe trial was presented during which the platform was removed. The percentage of time that was spent in the quadrant, which previously contained the escape platform during task acquisition, was measured over 60 s. All trials were analysed for latency, swim path length and swim speed by means of MazeScan (Clever Sys, Inc.).
After rinsed in distilled water, the sections were transferred to blocking solution (1% sodium hydroxide and 0.9% hydrogen peroxide) for 20 min. […] The sections were washed with 50% ethanol and placed in distilled water. Then the sections were covered with glass cover using mounting solution.
To detect the Aβ deposition in 5XFAD mice, the mice brains were homogenized in 8 × mass of 5 M guanidine HCl/50 mM Tris–HCl (pH 8.0), and incubated at room temperature for 3 h. Then the samples were diluted with cold reaction buffer (phosphate buffered saline with 5% BSA and 0.03% Tween 20, supplemented with protease inhibitor cocktail) and centrifuged at 16,000g for 20 min at 4 °C. The supernatant were analysed by human Aβ42 and Aβ40 ELISA kit according to the manufacturer's instructions (KHB3441 and KHB3481, Invitrogen). The Aβ42 and Aβ40 concentrations were determined by comparison with the standard curve. The concentrations of IL-1β and TNFα in the mice brain were detected using mouse IL-1β and TNFα ELISA kit from eBioscience according to the manufacture's instructions.

[2] = Single-dose pharmacokinetics, IV and oral; conditions: for serum concentration: all three animals
Description: Two months old CD-1 male mice were orally
serum was collected at indicated time points with each group of 3 mice (mean ± s.d.).

[3] = Redox potential, horseradish peroxidase-phenol red assay (H2O2 production)
[4] = male, CD-1, mouse, in vivo, iv, 2 mg kg-1
[5] = male, CD-1, mouse, in vivo, po, 10 mg kg-1
[6] = male, CD-1, mouse, serum, iv, 2 mg/kg
[7] = male, CD-1, mouse, serum, po, 10 mg/kg

Nc1ccc(N2CCOCC2)c2nonc12 [compound 11, 7-(morpholin-4-yl)-2,1,3-benzoxadiazol-4-amine]
reaction with β-mercaptoethanol [1]: did not react; also recorded: unreactive
stability by NMR spectroscopy ([1]; presence or absence of cysteamine): stable
Aβ deposition, time and dose dependence (5XFAD mice; 2, 5 or 10 mg kg−1 d−1 for 1.5 and 3 months): attenuated Aβ deposition in a time- and dose-dependent manner
concentrations of IL-1β and TNFα (5XFAD mice; 5XFAD mice): reduced the concentrations of inflammatory cytokines IL-1β and TNFα
activity of δ-secretase in mice brain (5XFAD mice; 5XFAD, oral once daily, 3 months): significantly inhibited
concentrations of Aβ 1–40 and Aβ 1–42 in brain lysates (5XFAD mice; ELISA): significantly decreased
cleavage of APP by δ-secretase at N373 and N585 (5XFAD mice; Western blot): decreased the cleavage of APP
Morris water maze distance to platform (5XFAD mice; acquisition): decreased distance to platform
LTP deficits (5XFAD mice; mouse, in vivo): significantly reversed the LTP deficits
density of spines (Golgi stain) (5XFAD mice; mouse, in vivo): increased the density of spines
expression of C83 (5XFAD mice; mouse, in vivo): not altered
expression of C99 (5XFAD mice; mouse, in vivo): decreased
plaque deposition in hippocampus and frontal cortex (Thioflavin S) (5XFAD mice; mouse, in vivo): attenuated
probe test, time in target quadrant (5XFAD mice; mouse, in vivo): spent more time in the target quadrant
swim speed (5XFAD mice; mouse, in vivo): not affected
serum concentration ([2]; IV 2 mg kg-1, 8.00 h): BLQ
serum concentration ([2]; IV 2 mg kg-1, 24.00 h): BLQ
concentration at 0.08 h [2, 4]: 230 ng/mL
concentration at 0.5 h [2, 4]: 13.3 ng/mL
concentration at 1 h [2, 4]: 3.5 ng/mL
concentration at 2 h [2, 4]: 3.8 ng/mL
concentration at 4 h [2, 4]: 3.1 ng/mL
concentration at 0.5 h [2, 5]: 81.1 ng/mL
concentration at 1 h [2, 5]: 27.2 ng/mL
concentration at 2 h [2, 5]: 13.3 ng/mL
concentration at 4 h [2, 5]: 11.6 ng/mL
concentration at 8 h [2, 5]: 3.8 ng/mL
AUC(0-inf) [2, 6]: 61.2 ng·h/mL
AUC(0-t) [2, 6]: 61.1 ng·h/mL
Cmax [2, 6]: 230 ng/mL
MRT last [2, 6]: 18 min
Vd [2, 6]: 10.8 L/kg
clearance [2, 6]: 554 mL/min/kg
half-life [2, 6]: 13.2 min
bioavailability ([2]; male, CD-1, mouse, serum, oral, 10 mg kg-1, F (oral bioavailability), mean, oral 10 mg kg-1 vs IV 2 mg kg-1): 69%
AUC(0-inf) [2, 7]: 223 ng·h/mL
AUC(0-t) [2, 7]: 211 ng·h/mL
CL/F [2, 7]: 824 mL/min/kg
Cmax [2, 7]: 447 ng/mL
MRT last [2, 7]: 69 min
Tmax [2, 7]: 15 min
Vd/F [2, 7]: 134 L/kg
half-life [2, 7]: 139 min
serum concentration ([2]; oral 10 mg kg-1, 24.00 h): BLQ
F (oral bioavailability), mean ([2]; oral 10 mg kg-1 vs IV 2 mg kg-1): ~70%
production of H2O2 (redox potential) [3]: none of them produced H2O2
